From patent publication US8981179B2, “Transgenic non-human animal and uses thereof” (Sanofi, priority 2009, dated 2015)

Assays:
CRE Luc reporter = assay: In vivo bioluminescence imaging of CreLuc transgenic mouse after isoproterenol; conditions: bioimaging
Experimental: Administration of isoproterenol (right panel) increases spinal cord expression of the CRE Luc reporter compared to basal levels (left panel). The bioluminescent detection is represented visually on a white-light image of the animal as a pseudocolor representation in grayscale. […] For in vivo assays, the animals are dosed with luciferin only and then bioimaged on an IVIS bioimager to get baseline signal. The animals are then dosed with compound, and then bioimaged again at a set timepoint to examine the effects of the compound on the luciferase signal. Data can be analyzed as the fold induction of the induced signal versus the baseline signal. For the ex vivo assays, mice are dosed with either compound or vehicle, and then at a set timepoint, tissues are harvested and frozen. The tissues can then be homogenized and a luciferase assay such as Promega Luciferase assay system (Promega cat #E1500) run on the tissue extracts and the assay read on a luminometer such as the Topcount. Data can be analyzed as the relative light units per μg protein, comparing vehicle versus compound groups.

[1] = tested on: cAMP pathway (CreLuc luciferase reporter) in brain slices; assay: Whole brain slice luminescence, cAMP pathway activators; format: cell-based, mouse; conditions: line 187, 1 uM isoproterenol, 2 days
Experimental: In general, brains from CreLuc mice can be harvested and then either cut into slices on a microtome or various subregions can also be dissected out and then sliced on a microtome. The slices can then be incubated with different compounds such as forskolin and rolipram, or GPCR specific compounds. Luciferase levels can then be measured with an IVIS bioimager or a photomultiplier with a carousel to take quantitative timecourse measurements.
Thus, isoproterenol was used to increase the luciferase signal window which allows for screening GPCR specific compounds such as Gi agonists.
Compound activity can also be quantitated over time in a viable brain slice and luciferase expression can be visualized by a bioimager. […] Forskolin is a general activator of cAMP.

[2] = tested on: β adrenergic receptors (ADβR); assay: Primary cortical neurons CreLuc luciferase assay, Gs modulation via ADβR; format: cell-based, mouse; conditions: cortical neurons line 187, day 3, 10 μM, 4 hours
Source text: A general schematic of the workflow for the isolation and compound treatment of primary neuronal cells from the CreLuc model is depicted in FIG. 9. Cortices or other brain subregions are removed from embryos, usually embryonic (E) day 17 or 18, but also as early as E14. The individual neurons are then isolated and plated onto 96 well assay plates. Assays are run either in triplicate or quadruplicate. The assays are run from day 3 in culture up until day 7 or day 10 in culture depending on the expression levels of the target GPCR. Compounds are added to the plates then at a set timepoint, Bright Glo (Promega, Cat #E2610) is added to the plates and the assay is then run on a TopCount or other luminometer.
Primary cell cultures from the CreLuc mice may be used to screen compounds that are capable of modulating Gs coupled receptors. Neurons were isolated from the cortices of line 187 E18 embryos. […] The assay was run in triplicates on day three in culture. Forskolin was used at 5 μM, rolipram at 10 μM and the Gs agonists, ADβR-isoproterenol; and Dopamine-SKF82958 (MFG, Cat #C130) at 10 μM. At 4 hours, Bright Glo was added and the assays run on a Topcount. Forskolin is a general activator of cAMP. […] Forskoline and rolipram act synergistically to increase luciferase expression. […]

ADRβ = assay: Primary striatal neurons CreLuc luciferase assay, ADβR agonist; format: cell-based, mouse; conditions: striatal neurons line 187, day 4, 10 μM, 3 μM and 1 μM, 5 hours
Source text: Any cell culture derived from the CreLuc mice may be used to screen compounds for the ability to modulate GPCRs. Luciferase expression was induced in CreLuc striatal neurons by forskolin and rolipram, and Gs agonists for DRD1 and ADβR (FIG. 16). Striatum neurons were isolated from E14 embryos. The assays were run at day 4 in culture. […]. Thus, the transgene is functional in striatal as well cortical neurons (see FIG. 10).

[3] = tested on: β-adrenergic receptor (ADβR); assay: Whole splenocytes CreLuc luciferase assay, ADβR agonist; format: cell-based, mouse; conditions: line 64 whole splenocytes, 10 uM, 4 hours
Experimental: Whole splenocyte preps isolated from CreLuc mice (line 64) were used to show the effects of general cAMP inducers such as forskolin and rolipram, as well as Gs agonists on luciferase expression (FIG. 16). […] The cell suspension was then passed through a 70 um strainer into a 50 ml conical tube. […] Cells were diluted to 2×10^6/ml, and 100 ul of the cells were plated per well in a 96 well white opaque plate. […] At 24 hours, compounds were added to the plates for an additional 4 hours. The general inducers include rolipram (Sigma R6520), forskolin (Sigma F6886). […] The assay was run in triplicate. After 4 hours, 100 μl of BrightGlo (Promega, Madison, Wis., cat#E2610) and the assay was read on a TopCount luminometer. […] The preparation used in the experiment was a whole splenocyte preparation which is a mixed population of cells.

ADβR [4] = assay: Isolated CD4+ T cells CreLuc luciferase assay, ADβR agonist; format: cell-based, mouse; conditions: line 64 CD4+ T cells, anti CD3 24 hours, 10 μM, 4 hours
Experimental: The effects of different Gs agonists on luciferase levels in anti CD3 stimulated CD4+ T cells isolated from CreLuc mice was studied (FIG. 19). Whole splenocyte populations were prepared by mechanical disruption. CD4+ cells were then isolated by MACS Magnetic Separation with Positive Selection (Miltenyi Biotec cat#130-049-201). The cells, 1.5×10^5 per well, were then plated on 96 well white opaque plates and then stimulated with anti CD3 antibodies (BD Pharmingen cat#553058). After 24 hours, compounds were added for an additional 4 hours. Gs agonists for DP (B[…]), EP2 (EX00000173A) and ADβR (isoproterenol) were all used at 10 μM. Forskolin 5 μM, and rolipram 10 μM. BrightGlo (Promega, Madison, Wis., cat#E2610) was added and the assay was read on the TopCount. A 25-fold increase is observed in cells treated with forskolin and rolipram. […] The transgene was responsive to specific Gs agonists as well as general modulators of the cAMP pathway.

ADβR [5] = assay: Mouse embryonic fibroblasts CreLuc luciferase assay, ADβR agonist; format: cell-based; conditions: six independent CreLuc lines, 10 μM isoproterenol
Experimental: The effects of forskolin, rolipram and isoproterenol on luciferase expression in mouse embryonic fibroblasts was investigated (FIG. 33). Mouse embryonic fibroblasts were cultured from E12 embryos from six independent CreLuc lines. Cells were plated at 20,000 cells per well. Compounds tested include 10 μM forskolin, 5 μM rolipram and 10 μM isoproterenol (ADβR agonist).

ADβR [6] = assay: Cardiomyocytes CreLuc luciferase assay, ADβR agonist; format: cell-based, mouse; conditions: cardiomyocytes line 229, 10 μM isoproterenol
Experimental: The effects of forskolin and rolipram and isoproterenol on luciferase levels in cardiomyocytes was studied (FIG. 35). Cardiomyocytes were isolated from P3 pups from line 229. The cells were cultured in a 96 well plate. Compounds tested include 10 μM forskolin, 5 μM rolipram and 10 μM isoproterenol (ADβR agonist).

`CC(C)NCC(O)c1ccc(O)c(O)c1` (centres unmarked) [isoproterenol] was tested, and the “spinal cord expression of the CRE Luc reporter compared to basal levels” value (CRE Luc reporter) was “increases”, the “luciferase expression in hippocampal brain slices” value [1] was “induces luciferase expression levels” and the “increased luci levels vs DMSO control” value [2] was 11 fold. For the same compound, the luciferase expression (ADRβ) was “Significant increases”, the “luciferase versus DMSO only control (t-test)” value [3] was “Statistically significant increases” and the increase of luciferase (ADβR [4]) was 5 fold. The “luciferase expression in mouse embryonic fibroblasts” value (ADβR [5]) was “Significant increases were also observed in three of the lines” and the “increase in luciferase levels” value (ADβR [6]) was 2 fold.
